Test results reported in patent US10617662B2, “Autophagy activation-induced compound for improving skin inflammation for aging” (INCOSPHARM CORPORATION, priority 2017, dated 2020).

Experiments:
[1] = tested on: Beclin-1; experiment: Western blot for Beclin-1 protein; format: cell-based, human; details: HaCaT cells; 20 uM dilution, 1 ml added to 1 ml medium; FIG. 1
Protocol: In order to analyze which gene expression is related to increased autophagy activation by Compound 8 of the present invention, a western blot analysis for Beclin-1 and ULK-1 (Serine/threonine-protein kinase-1) proteins which are closely related to autophagy activation was performed.
As a specific experimental method, HaCaT cells, human-derived keratinocytes were seeded on a 60Ø dish at a density of 3×10^5 cells, and cultured in DMEM (Dulbecco's Modified Eagle Media, Gibco BRL) in an incubator under 37° C. and 5% CO2 for 24 hours. Compound 8 of the present invention was dissolved in DMSO at a concentration of 10 mM each to be a concentrate, and diluted with a medium to be at a concentration of 20 uM. Then in a state where 1 ml of medium was first in each well, 1 ml of each diluted solution was added thereto for treatment, and cultured for a certain period, and after completing the culturing, the medium was removed, and then cells were disrupted with a SDS sample buffer, and each protein was separated by SDS-PAGE gel electrophoresis, and transferred to a PVDF membrane. […]

[2] = tested on: KRT1 (Keratin 1); experiment: Western blot of differentiation marker KRT1; format: cell-based, human; details: FIG. 4
Protocol: (§1) A psoriasis-related genes were selected from the cDNA array result in which Compound 8 of the present invention was treated in HaCaT cells. In order to analyze whether Compound 8 has an effect on psoriasis alleviation, RT-PCR analysis for IL-36′ (interleukin 36 gamma), KLK7 (Kallikrein-related peptidase 7), OASL (2′-5′-Oligoadenylate Synthetase Like) and ALOX12B (Arachidonate 12-lipoxygenase, 12R type) which are very closely related to psoriasis was carried out. Further, KRT16 (Keratin 16), KRT6 (Keratin 6) and KRT1 (Keratin 1), known as psoriasis-related proliferation, differentiation markers were confirmed by a western blot analysis. As the specific experimental method, HEKa cells (Human Epidermal keratinocytes, adult), human-derived epidermal keratinocytes were seeded on a 24 well plate at a density of 1×10^5 cells, and cultured in an EpiLife medium (1× Human keratinocyte Growth supplement, 1× antibiotics) in an incubator under 37° C. and 5% CO2 for 24 hours. […]

[3] = tested on: IL-24 (interleukin-24); experiment: Cytokine gene expression, IL-24, TNFα/IFN-γ induced inflammatory condition; format: cell-based, human; details: FIG. 8
[4] = tested on: Foxp3 (forkhead box P3); experiment: Expression of psoriasis-related transcription factor Foxp3 in induced inflammatory condition; format: cell-based, human; details: IL-17A/TNFα- or IL-17A/IFNγ-induced inflammatory condition
Protocol: [The source words this procedure for another target and says it was used here with some conditions changed.] as §1

[5] = Psoriasis animal model, weight change; format: in vivo, BALB/c mice; details: topical treatment, FIG. 16
Protocol: In order to confirm the psoriasis treatment effect by Compound 8 of the present invention, dorsal hair of 8-week-old BALB/c mice (female) was removed using hair removal cream (Veet®, Oxy Reckitt Benckiser, Cedex, France), and subsequently imiquimod 5% cream (Aldara®; 3M Pharmaceuticals, UK; 62.5 mg) was applied on the back and both ears of the mice twice in the morning and in the afternoon (Sensitization; Day 0). Then, after a barrier recovery period of 2 days, imiquimod 5% cream (62.5 mg/day) was applied repeatedly for 7 days (Induction stage; Day 2 -Day 8), thereby inducing the psoriasis animal model.
After inducing the psoriasis animal model, Compound 8 of the present invention dissolved in ethanol (0.5%) and cream containing Compound 8 of the present invention (The same composition as that of the cosmetic composition of Example 14 except that it contained 0.5% by weight of Compound 8) were applied on the back once in the morning for 5 days (Treatment Stage; Day 8-Day 12). An untreated control group and a disease control group (vehicle) were treated with cream not containing Compound 8 of the present invention (cosmetic composition of Comparative Example 2) and ethanol, and during the treatment period, imiquimod 5% cream was applied thereon every other day, thereby maintaining psoriasis.

[6] = tested on: IL-1β (interleukin-1beta); experiment: ELISA for IL-1β in LPS-treated HEKa cells; format: cell-based, human; details: LPS-induced inflammatory condition, 10·M, FIG. 10
Protocol: ELISA (enzyme-linked immunosorbent assay) for IL-1β (interleukin-1beta) which is very closely related to atopic inflammation and psoriasis was performed.
As a specific experimental method, HEKa cells (Human Epidermal keratinocytes, adult), human-derived epidermal keratinocytes were seeded on a 24 well plate at a density of 1×10^5 cells, and cultured in an EpiLife medium (1× Human keratinocyte Growth supplement, 1× antibiotics) in an incubator under 37° C. and 5% CO2 for 24 hours.
After culturing, while an inflammatory condition was induced by treatment with LPS (lipopolysaccharides) in each well, further treatment was performed with Compound 8 of the present invention and the compound of the following Comparative Example at a concentration of 10·M, and then the cells were incubated for a certain period. After completing culturing, media were collected, and then ELISA for IL-1β was carried out, and the results are shown in FIG. 10.

[7] = tested on: STAT3 (Signal transducer and activator of transcription 3); experiment: Expression of psoriasis-related transcription factor STAT3 in induced inflammatory condition; format: cell-based, human; details: IL-17A/TNFα- or IL-17A/IFNγ-induced inflammatory condition
[8] = tested on: CCL20 (Chemokine (C-C motif) ligand 20); experiment: Cytokine gene expression, CCL20, IL-17A/TNF-α condition; format: cell-based, human; details: FIG. 9

CCCCCCCCCCCCCCCC(=O)NCCCC[C@H](NC(=O)[C@H](CCCCN(CC(=O)O)CC(=O)O)N(CC(=O)O)CC(=O)O)C(=O)O [Compound 8]
expression of Beclin-1 protein [1]: significantly increased | KRT1 (differentiation marker) level [2]: increased | expression level of IL-24 [3]: reduced | expression level of Foxp3 [4]: reduced | weight change after treatment [5]: almost similar to those of the control group | cytokine IL-1β secretion level [6]: significantly reduced | expression level of STAT3 [7]: reduced | expression level of CCL20 [8]: reduced
